Results on 7 sequences are retold here after paper PMC10056643, “New Bioactive Peptides from the Mediterranean Seagrass Posidonia oceanica (L.) Delile and Their Impact on Antimicrobial Activity and Apoptosis of Human Cancer Cells” (International Journal of Molecular Sciences, 2023).

Like-named read-outs stand apart in the source and are kept apart here. Where no end group is shown, it is not given here. Bounds are passed on as bounds.

The term MIC denotes the lowest concentration that inhibits growth of the organism. A higher MIC goes with a less susceptible organism.

One assay relates to HepG2 cells. Type of assay: cell-based, human. The conditions noted are these: for Activity on HepG2 cells (in words): HepG2, discussion statement; for IC50 (cell viability): 24 h. The method, then:
HepG2 human hepatic cancer cells (taken from laboratory stocks) were routinely grown in high glucose–DMEM medium with the addition of 10% fetal calf serum (Life Technologies, Carlsbad, CA, USA) and antibiotics (100 U/mL penicillin and 100 μg/mL streptomycin; Life Technologies), at 37 °C in a 5% CO2 atmosphere.
For IC50 determination, cells undergoing exponential growth were seeded at a concentration of 5500/well in 96-well plates, allowed to adhere overnight, and then grown in control conditions or exposed to different concentrations of natural and synthetic peptides for 24 h. The number of viable cells was determined through the trypan blue exclusion test. The cell viability ratio in each experimental condition was determined as the ratio between unstained treated cells and controls, and the half maximal inhibitory concentrations (IC50) for peptides #7, #3d, and #7d were evaluated using the CompuSyn software.

For assay [1], the system named is P. aeruginosa ATCC 15442. Type of assay: cell-based, Pseudomonas aeruginosa. The source says:
(§1) Four bacterial strains and one fungal strain were employed in this study: S. aureus ATCC 25923, P. aeruginosa ATCC 15442, E. coli ATCC 25922, E. faecalis ATCC 29212, and C. albicans ATCC 10231. The media used for microbiological assays were Tryptic Soy Broth (TSB, Sigma-Aldrich, Merck-Life Sciences S.r.l., Milan, Italy), Tryptic Soy Agar (TSA), Mueller Hinton II (Sigma-Aldrich, Merck-Life Sciences S.r.l., Milan, Italy), and Sabouraud medium for the yeast strain.
(§2) Polypeptide-enriched extracts derived from green leaves and rhizomes of P. oceanica were lyophilized and resuspended in ultrapure water in order to obtain protein concentrations of 30 μg/mL and 26 μg/mL, respectively. The MIC values of the extracts were assessed through a previously described micro-method based on serial dilution (1:2) of the extracts, using Mueller Hinton II (MH II) and Sabouraud (for C. albicans) media in 96-well microplates and starting from 50% v/v to 1.5% v/v for a final volume equal to 100 μL. A microbial suspension of 10 μL (5 × 10^6 CFU/mL) derived from a bacterial culture grown at 37 °C for 24 h on Tryptic Soy Agar (TSA) in 5 mL of NaCl 0.9%, whose turbidity was similar to the 0.5 McFarland standard, was added to a 96-well plate followed by incubation at 37 °C for 24 h. […] In addition, a positive growth control (broth with bacterial inoculum to compare the growth of the cells with samples) and a sample control (extract solution without bacterial inoculum to verify the absorbance of the samples at various tested concentrations) were also included.
(§3) The same procedure and media were also used to evaluate the antimicrobial activity of synthetic peptides #2, #3, #5, and #7, as well as of their derivatives. In particular, the synthetic peptides and their derivatives were dissolved in ultrapure water with the goal of achieving a stock solution of 5 mg/mL. Work solutions of 250 μg/mL of each synthetic peptides and derivatives were prepared in MH II and Sabouraud, being tested in 96-well microplates after serial dilution (1:2). Each assay was performed in triplicate.

Another assay concerns C. albicans ATCC 10231. Type of assay: cell-based, Candida albicans.
Excerpt: as §1, §2, §3

Assay [2] concerns P. aeruginosa ATCC 15442. Type of assay: cell-based, Pseudomonas aeruginosa. The following applies: crystal violet. The method, then: Sub-MIC concentrations of natural extracts and synthetic peptides were tested to evaluate their interference with the growth as a sessile community of S. aureus ATCC 25923, P. aeruginosa ATCC 15442 and C. albicans ATCC 10231, as previously reported. Bacterial strains or fungal strains were incubated in test tubes containing TSB or Sabouraud (5 mL) and 2% v/v glucose at 37 °C for 24 h. Then, a 2.5 μL microbial suspension was added to each well, containing 200 μL of TSB or Sabouraud broth with 2% w/v glucose.. Aliquots of sub-MIC concentrations of natural extracts of P. oceanica or of chemically synthesized peptides were directly added to the wells, and the plates were incubated at 37 °C for 24 h. After biofilm formation, the wells were washed twice with sterile NaCl 0.9% and stained with 200 μL of 0.1% v/v crystal violet solution for 30 min at 37 °C [70]. Excess solution was discharged, and the plates were washed twice using tap water. Lastly, each stained well was processed by adding 200 μL of ethanol to solubilize the dye. The OD was read at a wavelength of 600 nm using a microplate reader (Glomax®-Multi Detection System, Promega s.r.l., Milan, Italy). […] The percentage of biofilm inhibition formation was determined through the following formula: % Inhibition = [(OD growth − OD sample)/OD growth control] × 100. […]

The subject of another assay is E. faecalis ATCC 29212. Type of assay: cell-based, Enterococcus faecalis.
Excerpt: as §1, §2, §3

In the next assay the test system is E. coli ATCC 25922. Type of assay: cell-based, Escherichia coli.
Excerpt: as §1, §2, §3

Another assay relates to S. aureus ATCC 25923. Type of assay: cell-based, Staphylococcus aureus.
Excerpt: as §1, §2, §3

Setting [3] is: chemically synthesized peptide, maximum tested concentration 250 μg/mL, Mueller Hinton II, triplicate.

As for “EETFHGVL [Peptide #2, natural peptide EETFHGVL from green leaves extract, chemically synthesized]”, in the assay on HepG2 cells, the “Activity on HepG2 cells (in words)” value is “lack of activity”.

Consider GEFALCSAKT [Peptide #7], for which the “IC50 (cell viability)” value in the assay on HepG2 cells worked out at 329 ng/mL.

Consider “IVASVGSA [Peptide #5, natural peptide IVASVGSA from rhizome extract, chemically synthesized]”, for which, in the assay on HepG2 cells, the “Activity on HepG2 cells (in words)” value is on record as “inability of peptide #5 to exert any biological role”.

As to IVAKVGSA [5d], the MIC was more than 250 µg/mL against P. aeruginosa ATCC 15442 [1] (setting [3]); more than 250 µg/mL in the assay with C. albicans ATCC 10231 (chemically synthesized peptide, maximum tested concentration 250 μg/mL, Sabouraud, triplicate); more than 250 µg/mL in the assay with E. faecalis ATCC 29212 (setting [3]); more than 250 µg/mL against E. coli ATCC 25922 (setting [3]); more than 250 µg/mL in the assay on S. aureus ATCC 25923 (setting [3]). Also, the “Percentage of inhibition of biofilm formation” value in the assay with P. aeruginosa ATCC 15442 [2] (maximum tested concentration 200 μg/mL) stood at 57.2%. Further, the BIC50 in the assay with P. aeruginosa ATCC 15442 [2] (peptide, AAT Bioquest IC50 calculator) was 70.7 µg/mL.

Take GEFALCKATK [Peptide #7d]: the “IC50 (cell viability)” value in the assay on HepG2 cells was 108 ng/mL. Further, the MIC with P. aeruginosa ATCC 15442 [1] (ATCC 15442, 24 h) was more than 250 µg/mL; against C. albicans ATCC 10231 (ATCC 10231, 24 h), more than 250 µg/mL; against E. faecalis ATCC 29212 (ATCC 29212, 24 h) it was more than 250 µg/mL; against E. coli ATCC 25922 (ATCC 25922, 24 h) it was more than 250 µg/mL; in the assay on S. aureus ATCC 25923 (ATCC 25923, 24 h), more than 250 µg/mL.

Take RKTFWGVL [Peptide #2d]: the MIC was more than 250 µg/mL against P. aeruginosa ATCC 15442 [1] (ATCC 15442, 24 h); more than 250 µg/mL against C. albicans ATCC 10231 (ATCC 10231, 24 h); more than 250 µg/mL against E. faecalis ATCC 29212 (ATCC 29212, 24 h); more than 250 µg/mL in the assay with E. coli ATCC 25922 (ATCC 25922, 24 h); more than 250 µg/mL against S. aureus ATCC 25923 (ATCC 25923, 24 h).

WVVRLNAPGKK [Peptide #3d]: the “IC50 (cell viability)” value with HepG2 cells was 410 ng/mL. Moreover, the MIC is more than 250 µg/mL against P. aeruginosa ATCC 15442 [1] (ATCC 15442, 24 h); more than 250 µg/mL with C. albicans ATCC 10231 (ATCC 10231, 24 h); more than 250 µg/mL with E. faecalis ATCC 29212 (ATCC 29212, 24 h); more than 250 µg/mL with E. coli ATCC 25922 (ATCC 25922, 24 h); more than 250 µg/mL with S. aureus ATCC 25923 (ATCC 25923, 24 h).
